Laboratory results taken from ChEMBL document CHEMBL3044736, “Synthesis, characterization, solvatochromic properties, and antimicrobial evaluation of 5-acetyl-2-thioxo-dihydro-pyrimidine-4,6-dione-based chalcones” (2013).
Values after ≈ are worked out from the molar mass of the structure shown.

Legend:
Format in all cases: functional
[1] = test system: Penicillium; test: Antimicrobial activity against Penicillium wild strain assessed as diameter of growth inhibition zone at 250 ug/ml after 48-96 hr by agar cup diffusion method; conditions: read-out: DIZ
[2] = test system: Penicillium; test: Antimicrobial activity against Penicillium wild strain assessed as diameter of growth inhibition zone at 100 ug/ml after 48-96 hr by agar cup diffusion method; conditions: read-out: DIZ
[3] = test system: Trichophyton rubrum; test: Antimicrobial activity against Trichophyton rubrum MTCC 296 assessed as diameter of growth inhibition zone at 100 ug/ml after 48-96 hr by agar cup diffusion method; conditions: read-out: DIZ
[4] = test system: Aspergillus clavatus; test: Antimicrobial activity against Aspergillus clavatus MTCC 1323 assessed as diameter of growth inhibition zone at 100 ug/ml after 48-96 hr by agar cup diffusion method; conditions: read-out: DIZ
[5] = test system: Candida albicans; test: Antimicrobial activity against Candida albicans MTCC 227 assessed as diameter of growth inhibition zone at 100 ug/ml after 48-96 hr by agar cup diffusion method; conditions: read-out: DIZ
[6] = test system: Penicillium; test: Antimicrobial activity against Penicillium wild strain assessed as diameter of growth inhibition zone at 50 ug/ml after 48-96 hr by agar cup diffusion method; conditions: read-out: DIZ
[7] = test system: Trichophyton rubrum; test: Antimicrobial activity against Trichophyton rubrum MTCC 296 assessed as diameter of growth inhibition zone at 50 ug/ml after 48-96 hr by agar cup diffusion method; conditions: read-out: DIZ
[8] = test system: Aspergillus clavatus; test: Antimicrobial activity against Aspergillus clavatus MTCC 1323 assessed as diameter of growth inhibition zone at 50 ug/ml after 48-96 hr by agar cup diffusion method; conditions: read-out: DIZ
[9] = test system: Candida albicans; test: Antimicrobial activity against Candida albicans MTCC 227 assessed as diameter of growth inhibition zone at 50 ug/ml after 48-96 hr by agar cup diffusion method; conditions: read-out: DIZ
[10] = test system: Penicillium; test: Antimicrobial activity against Penicillium wild strain assessed as diameter of growth inhibition zone at 25 ug/ml after 48-96 hr by agar cup diffusion method; conditions: read-out: DIZ
[11] = test system: Trichophyton rubrum; test: Antimicrobial activity against Trichophyton rubrum MTCC 296 assessed as diameter of growth inhibition zone at 25 ug/ml after 48-96 hr by agar cup diffusion method; conditions: read-out: DIZ
[12] = test system: Aspergillus clavatus; test: Antimicrobial activity against Aspergillus clavatus MTCC 1323 assessed as diameter of growth inhibition zone at 25 ug/ml after 48-96 hr by agar cup diffusion method; conditions: read-out: DIZ
[13] = test system: Candida albicans; test: Antimicrobial activity against Candida albicans MTCC 227 assessed as diameter of growth inhibition zone at 25 ug/ml after 48-96 hr by agar cup diffusion method; conditions: read-out: DIZ
[14] = test system: Penicillium; test: Antimicrobial activity against Penicillium wild strain by agar cup diffusion method
[15] = test system: Aspergillus clavatus; test: Antimicrobial activity against Aspergillus clavatus MTCC 1323 by agar cup diffusion method
[16] = test system: Pseudomonas aeruginosa; test: Antimicrobial activity against Pseudomonas aeruginosa MTCC 1688 assessed as diameter of growth inhibition zone at 25 ug/ml after 18-24 hr by agar cup diffusion method; conditions: read-out: DIZ
[17] = test system: Escherichia coli; test: Antimicrobial activity against Escherichia coli MTCC 443 assessed as diameter of growth inhibition zone at 25 ug/ml after 18-24 hr by agar cup diffusion method; conditions: read-out: DIZ
[18] = test system: Staphylococcus aureus; test: Antimicrobial activity against Staphylococcus aureus MTCC 96 assessed as diameter of growth inhibition zone at 25 ug/ml after 18-24 hr by agar cup diffusion method; conditions: read-out: DIZ
[19] = test system: Streptococcus pyogenes; test: Antimicrobial activity against Streptococcus pyogenes MTCC 442 assessed as diameter of growth inhibition zone at 25 ug/ml after 18-24 hr by agar cup diffusion method; conditions: read-out: DIZ
[20] = test system: Klebsiella pneumoniae; test: Antimicrobial activity against Klebsiella pneumoniae MTCC 109 by agar cup diffusion method
[21] = test system: Escherichia coli; test: Antimicrobial activity against Escherichia coli MTCC 443 by agar cup diffusion method
[22] = test system: Pseudomonas aeruginosa; test: Antimicrobial activity against Pseudomonas aeruginosa MTCC 1688 by agar cup diffusion method
[23] = test system: Staphylococcus aureus; test: Antimicrobial activity against Staphylococcus aureus MTCC 96 by agar cup diffusion method
[24] = test system: Streptococcus pyogenes; test: Antimicrobial activity against Streptococcus pyogenes MTCC 442 by agar cup diffusion method
[25] = test system: Trichophyton rubrum; test: Antimicrobial activity against Trichophyton rubrum MTCC 296 by agar cup diffusion method
[26] = test system: Candida albicans; test: Antimicrobial activity against Candida albicans MTCC 227 by agar cup diffusion method
[27] = test system: Klebsiella pneumoniae; test: Antimicrobial activity against Klebsiella pneumoniae MTCC 109 assessed as diameter of growth inhibition zone at 250 ug/ml after 18-24 hr by agar cup diffusion method; conditions: read-out: DIZ
[28] = test system: Pseudomonas aeruginosa; test: Antimicrobial activity against Pseudomonas aeruginosa MTCC 1688 assessed as diameter of growth inhibition zone at 250 ug/ml after 18-24 hr by agar cup diffusion method; conditions: read-out: DIZ
[29] = test system: Escherichia coli; test: Antimicrobial activity against Escherichia coli MTCC 443 assessed as diameter of growth inhibition zone at 250 ug/ml after 18-24 hr by agar cup diffusion method; conditions: read-out: DIZ
[30] = test system: Staphylococcus aureus; test: Antimicrobial activity against Staphylococcus aureus MTCC 96 assessed as diameter of growth inhibition zone at 250 ug/ml after 18-24 hr by agar cup diffusion method; conditions: read-out: DIZ
[31] = test system: Streptococcus pyogenes; test: Antimicrobial activity against Streptococcus pyogenes MTCC 442 assessed as diameter of growth inhibition zone at 250 ug/ml after 18-24 hr by agar cup diffusion method; conditions: read-out: DIZ
[32] = test system: Klebsiella pneumoniae; test: Antimicrobial activity against Klebsiella pneumoniae MTCC 109 assessed as diameter of growth inhibition zone at 100 ug/ml after 18-24 hr by agar cup diffusion method; conditions: read-out: DIZ
[33] = test system: Pseudomonas aeruginosa; test: Antimicrobial activity against Pseudomonas aeruginosa MTCC 1688 assessed as diameter of growth inhibition zone at 100 ug/ml after 18-24 hr by agar cup diffusion method; conditions: read-out: DIZ
[34] = test system: Escherichia coli; test: Antimicrobial activity against Escherichia coli MTCC 443 assessed as diameter of growth inhibition zone at 100 ug/ml after 18-24 hr by agar cup diffusion method; conditions: read-out: DIZ
[35] = test system: Staphylococcus aureus; test: Antimicrobial activity against Staphylococcus aureus MTCC 96 assessed as diameter of growth inhibition zone at 100 ug/ml after 18-24 hr by agar cup diffusion method; conditions: read-out: DIZ
[36] = test system: Streptococcus pyogenes; test: Antimicrobial activity against Streptococcus pyogenes MTCC 442 assessed as diameter of growth inhibition zone at 100 ug/ml after 18-24 hr by agar cup diffusion method; conditions: read-out: DIZ
[37] = test system: Klebsiella pneumoniae; test: Antimicrobial activity against Klebsiella pneumoniae MTCC 109 assessed as diameter of growth inhibition zone at 50 ug/ml after 18-24 hr by agar cup diffusion method; conditions: read-out: DIZ
[38] = test system: Pseudomonas aeruginosa; test: Antimicrobial activity against Pseudomonas aeruginosa MTCC 1688 assessed as diameter of growth inhibition zone at 50 ug/ml after 18-24 hr by agar cup diffusion method; conditions: read-out: DIZ
[39] = test system: Escherichia coli; test: Antimicrobial activity against Escherichia coli MTCC 443 assessed as diameter of growth inhibition zone at 50 ug/ml after 18-24 hr by agar cup diffusion method; conditions: read-out: DIZ
[40] = test system: Staphylococcus aureus; test: Antimicrobial activity against Staphylococcus aureus MTCC 96 assessed as diameter of growth inhibition zone at 50 ug/ml after 18-24 hr by agar cup diffusion method; conditions: read-out: DIZ
[41] = test system: Streptococcus pyogenes; test: Antimicrobial activity against Streptococcus pyogenes MTCC 442 assessed as diameter of growth inhibition zone at 50 ug/ml after 18-24 hr by agar cup diffusion method; conditions: read-out: DIZ
[42] = test system: Klebsiella pneumoniae; test: Antimicrobial activity against Klebsiella pneumoniae MTCC 109 assessed as diameter of growth inhibition zone at 25 ug/ml after 18-24 hr by agar cup diffusion method; conditions: read-out: DIZ
[43] = test system: Trichophyton rubrum; test: Antimicrobial activity against Trichophyton rubrum MTCC 296 assessed as diameter of growth inhibition zone at 250 ug/ml after 48-96 hr by agar cup diffusion method; conditions: read-out: DIZ
[44] = test system: Aspergillus clavatus; test: Antimicrobial activity against Aspergillus clavatus MTCC 1323 assessed as diameter of growth inhibition zone at 250 ug/ml after 48-96 hr by agar cup diffusion method; conditions: read-out: DIZ
[45] = test system: Candida albicans; test: Antimicrobial activity against Candida albicans MTCC 227 assessed as diameter of growth inhibition zone at 250 ug/ml after 48-96 hr by agar cup diffusion method; conditions: read-out: DIZ

O=C(/C=C/c1ccccc1Cl)C1C(=O)NC(=S)NC1=O
zone of inhibition at 250 µg/mL [1]: 22 mm | zone of inhibition at 100 µg/mL [2]: 21 mm | zone of inhibition at 100 µg/mL [3]: 19 mm | zone of inhibition at 100 µg/mL [4]: 21 mm | zone of inhibition at 100 µg/mL [5]: 22 mm | zone of inhibition at 50 µg/mL [6]: 18 mm | zone of inhibition at 50 µg/mL [7]: 20 mm | zone of inhibition at 50 µg/mL [8]: 19 mm | zone of inhibition at 50 µg/mL [9]: 22 mm | zone of inhibition at 25 µg/mL [10]: 18 mm | zone of inhibition at 25 µg/mL [11]: 19 mm | zone of inhibition at 25 µg/mL [12]: 18 mm | zone of inhibition at 25 µg/mL [13]: 21 mm | MFC [14]: > 1000 µg/mL | MIC [14]: > 1000 µg/mL | MFC [15]: > 1000 µg/mL | MIC [15]: > 1000 µg/mL | zone of inhibition at 25 µg/mL [16]: 10 mm | zone of inhibition at 25 µg/mL [17]: 13 mm | zone of inhibition at 25 µg/mL [18]: 10 mm | zone of inhibition at 25 µg/mL [19]: 13 mm | MBC [20]: 250 µg/mL (≈ 810 µM) | MIC [20]: 200 µg/mL (≈ 648 µM) | MBC [21]: 500 µg/mL (≈ 1620 µM) | MIC [21]: 250 µg/mL (≈ 810 µM) | MBC [22]: 500 µg/mL (≈ 1620 µM) | MIC [22]: 250 µg/mL (≈ 810 µM) | MBC [23]: 500 µg/mL (≈ 1620 µM) | MIC [23]: 250 µg/mL (≈ 810 µM) | MBC [24]: 250 µg/mL (≈ 810 µM) | MIC [24]: 250 µg/mL (≈ 810 µM) | MFC [25]: 500 µg/mL (≈ 1620 µM) | MIC [25]: 500 µg/mL (≈ 1620 µM) | MFC [26]: > 1000 µg/mL | MIC [26]: 250 µg/mL (≈ 810 µM) | zone of inhibition at 250 µg/mL [27]: 18 mm | zone of inhibition at 250 µg/mL [28]: 18 mm | zone of inhibition at 250 µg/mL [29]: 16 mm | zone of inhibition at 250 µg/mL [30]: 18 mm | zone of inhibition at 250 µg/mL [31]: 16 mm | zone of inhibition at 100 µg/mL [32]: 15 mm | zone of inhibition at 100 µg/mL [33]: 17 mm | zone of inhibition at 100 µg/mL [34]: 15 mm | zone of inhibition at 100 µg/mL [35]: 17 mm | zone of inhibition at 100 µg/mL [36]: 15 mm | zone of inhibition at 50 µg/mL [37]: 13 mm | zone of inhibition at 50 µg/mL [38]: 14 mm | zone of inhibition at 50 µg/mL [39]: 14 mm | zone of inhibition at 50 µg/mL [40]: 14 mm | zone of inhibition at 50 µg/mL [41]: 14 mm | zone of inhibition at 25 µg/mL [42]: 12 mm | zone of inhibition at 250 µg/mL [43]: 21 mm | zone of inhibition at 250 µg/mL [44]: 22 mm | zone of inhibition at 250 µg/mL [45]: 23 mm
